In patent publication US8557770B2, “Method of preventing or reducing scarring of human skin” (Pharmecosse Ltd., priority 2000, dated 2013):
Where two headings read alike, the source gives them in different places.

Legend:
[1] = system: dermal fibroblast cell lines; assay: Myofibroblast number in dermal fibroblast cell lines in GFD medium with PPAR agonist; format: cell-based, human; conditions: for Mean percentage reduction in myofibroblast number compared to GFD medium alone: 14 days
Description: Dermal fibroblast cell lines were derived from 3 patients and seeded individually onto sterile coverslips. […] Medium was refreshed twice weekly and cultures were harvested for immunohistochemical staining for α-smooth muscle actin after 14 days. The number of myofibroblasts was counted and calculated as a percentage of the total cells present, and since the ability of each cell line to differentiate into myofibroblasts varied extensively, the results were normalised as follows. Results are expressed as the mean percentage reduction in myofibroblast number for each treatment as compared to the proportion of myofibroblasts identified in GFD medium alone for that cell line. The error bars represent plus or minus one standard deviation.

PPARγ = target: T1, PPARγ (Homo sapiens, UniProt P37231); conditions: read-out: Published C50, cited from earlier work
T1 sequence (P37231 1-505): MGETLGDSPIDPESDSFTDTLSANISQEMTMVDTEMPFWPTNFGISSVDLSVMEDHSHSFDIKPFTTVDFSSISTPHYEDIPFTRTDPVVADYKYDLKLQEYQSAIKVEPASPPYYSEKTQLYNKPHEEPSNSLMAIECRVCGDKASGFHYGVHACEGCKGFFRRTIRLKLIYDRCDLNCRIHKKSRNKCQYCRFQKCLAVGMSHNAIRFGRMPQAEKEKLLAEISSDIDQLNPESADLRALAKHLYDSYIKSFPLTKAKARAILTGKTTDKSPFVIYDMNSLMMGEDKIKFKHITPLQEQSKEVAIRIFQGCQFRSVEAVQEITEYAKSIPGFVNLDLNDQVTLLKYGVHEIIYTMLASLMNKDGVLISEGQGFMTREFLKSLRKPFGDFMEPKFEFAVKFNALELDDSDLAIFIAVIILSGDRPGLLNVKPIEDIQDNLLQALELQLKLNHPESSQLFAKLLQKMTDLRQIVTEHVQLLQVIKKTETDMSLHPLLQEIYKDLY

PPAR = conditions: Table 3: other general PPAR agonists; read-out: Published C50; cited from earlier work
[2] = system: fibroblast cultures from normal scars; assay: In vitro myofibroblast differentiation assay (α-smooth muscle actin staining), normal scar fibroblasts; format: cell-based, human
Description: (§1) One of the most important cell types in both normal and pathological scar formation is the myofibroblast. These cells, which differentiate from the unwounded tissue cell type (fibroblasts), are responsible for laying down scar tissue. Indeed myofibroblasts remain present in hypertrophic scars up to four years after the original wounding event. An in vitro assay was accordingly developed to identify actives which prevent or reduce myofibroblast formation and thus identify actives which are effective in reducing and/or preventing scar tissue formation.
(§2) Fibroblast cultures were initiated from normal skin, normal scars, hypertrophic scars (HTS) and burns scars.
(§3) Each culture was split into seven parts (A to G) and grown in the following different growth media:
(§4) (A) was grown in normal growth medium (hereinafter referred to as NGM) which consisted of Dulbecco's modified Eagles Medium (DMEM) plus 10% Foetal Calf Serum (FCS);
(§5) (B) was grown in growth factor depleted medium (hereinafter referred to as GF depleted) which is NGM that is depleted of active polypeptide growth factors including TGFP. It is prepared by treating FCS with a reducing agent in order to attack and cleave the disulphide bonds that determine the conformation and thus the biological activity of the polypeptide growth factors;
(§6) (D) (D1-D4) were grown in growth factor depleted medium plus 1 ng/ml-100 ng/ml of insulin-like Growth Factor-I) (IGF-I) (hereinafter referred to as GF depleted+IGF-I); (E) (E1-E3) were grown in growth factor depleted medium plus 50 ng/ml-[…] of insulin-like Growth Factor II (IGF-II) (hereinafter referred to as GF depleted+IGFII); (F) (F1F3) were grown in growth factor depleted medium plus 25 ng/ml to 100 ng/ml of basic fibroblast growth factor (bFGF) (hereinafter referred to as GF depleted and bFGF); […]
(§7) The fibroblasts were grown in these media (which was replenished twice weekly) for fourteen days, fixed and stained immunohistochemically using an antibody specific for α-smooth muscle actin (a marker of myofibroblasts). […] The number of these was counted, as was the total number of cells present, and the proportion of myofibroblasts was then calculated. In this manner, the number of myofibroblasts present in each culture was determined as a percentage of the total number of cells in the culture population.
(§8) Fibroblast cultures were initiated from normal scars (NS) and hypertrophic scars (HTS). […] The number of myofibroblasts was calculated as a percentage of the total cell population and the results are shown in FIGS. 1 and 2 of the drawings.
(§9) Fibroblasts cultures were initiated from normal and hypertrophic scars. […] The number of myofibroblasts were counted and calculated as a percentage of the total cells present.

[3] = system: fibroblast cultures from hypertrophic scars (HTS); assay: In vitro myofibroblast differentiation assay (α-smooth muscle actin staining), hypertrophic scar fibroblasts; format: cell-based, human; conditions: hypertrophic scar fibroblasts
Description: as §1, §2, §3, §4, §5, §6, §7, §8, §9

[4] = system: fibroblast cultures from burns scars; assay: In vitro myofibroblast differentiation assay (α-smooth muscle actin staining), burns scar fibroblasts; format: cell-based, human; conditions: 14 days
Description: as §1, §2, §3, §4, §5
(D) (D1-D4) were grown in growth factor depleted medium plus 1 ng/ml-100 ng/ml of insulin-like Growth Factor-I) (IGF-I) (hereinafter referred to as GF depleted+IGF-I); (E) (E1-E3) were grown in growth factor depleted medium plus 50 ng/ml-[…] of insulin-like Growth Factor II (IGF-II) (hereinafter referred to as GF depleted+IGFII); (F) (F1F3) were grown in growth factor depleted medium plus 25 ng/ml to 100 ng/ml of basic fibroblast growth factor (bFGF) (hereinafter referred to as GF depleted and bFGF);
(G) (G1-G3) were grown in growth factor depleted medium plus 25 ng/ml to 100 ng/ml of platelet derived growth factor (PDGF) (hereinafter referred to as GF depleted+PDGF).
The fibroblasts were grown in these media (which was replenished twice weekly) for fourteen days, fixed and stained immunohistochemically using an antibody specific for α-smooth muscle actin (a marker of myofibroblasts). The stain caused α-smooth muscle actin to fluoresce green and accordingly cells that had stained green were identified as myofibroblasts. The number of these was counted, as was the total number of cells present, and the proportion of myofibroblasts was then calculated. In this manner, the number of myofibroblasts present in each culture was determined as a percentage of the total number of cells in the culture population.

[5] = Table 5: natural PPARγ agonists
[6] = NGM plus 0.5 ng/ml TGFβ1, 5 days (FIG. 3)

Molecule: CC1(COc2ccc(CC3SC(=O)NC3=O)cc2)CCCCC1 (racemic) [Ciglitazone, (±)-5-[4-(1-methyl-cyclohexylmethoxy)-benzyl]-thiazolidine-2,4-dione]
- Mean percentage reduction in myofibroblast number compared to GFD medium alone ([1]; 0.5×10^−7M): 79%
- Mean percentage reduction in myofibroblast number compared to GFD medium alone ([1]; 10^−6M): 57%
- Mean percentage reduction in myofibroblast number compared to GFD medium alone ([1]; 10^−7M): 53%

Molecule: CCCCCC=CC=CC(O)CCCCCCCC(=O)O (stereo not drawn) [9-HODE, 9-hydroxy-10,12-octadecadienoic acid]
- EC50 (PPARγ; [5]): ~20 µM

Molecule: CCCCCC(O)C=CC=CCCCCCCCC(=O)O (stereo not drawn) [13-HODE, 13-hydroxy-9,11-octadecadienoic acid]
- EC50 (PPARγ; [5]): ~20 µM

Molecule: CCCCC[C@H](O)/C=C/C=C\C/C=C\C/C=C\CCCC(=O)O [15-HETE, 15-hydroxy-eicosatetraenoic acid]
- EC50 (PPARγ; [5]): ~10 µM

Molecule: CCCCCC=CC=C1C(=O)C=C[C@@H]1CC=CCCCC(=O)O [15-deoxy-Δ^12,14 prostaglandin J2]
- EC50 (PPARγ; [5]): ~3 µM

Molecule: CCCCC/C=C\C/C=C\C/C=C\C/C=C\CCCC(=O)O [Arachidonic acid]
- EC50 (PPARγ; [5]): ~20 µM

Molecule: CC(C)(Oc1ccc(CCNC(=O)c2ccc(Cl)cc2)cc1)C(=O)O [Bezafibrate, 2-[4-[2-[(4-chlorobenzoyl)-amino]ethyl]phenoxy]-2-methyl propanoic acid]
- EC50 (PPAR): 60 µM

Molecule: CCOC(=O)C(C)(C)Oc1ccc(Cl)cc1 [Clofibrate]
- EC50 (PPARγ; Table 4: strong agonists for PPAR receptors other than PPARγ, weak action on PPARγ): ~500 µM

Molecule: CC/C=C\C/C=C\C/C=C\C/C=C\C/C=C\CCCC(=O)O [Eicosapentaenoic acid (EPA), Eicosapentaenoic acid]
- EC50 (PPARγ; [5]): ~20 µM

Molecule: CCCc1c(OCCCOc2ccc(OCC(=O)O)cc2)ccc(C(C)=O)c1O [L-165041]
- EC50 (PPAR): 5.5 µM

Molecule: CCCc1c(OCCCCc2nnn[nH]2)ccc(C(C)=O)c1O [LY171883]
- Numbers of myofibroblasts ([1]; non-specific PPAR agonist): increase the numbers of myofibroblasts

Molecule: CCCCC/C=C\C/C=C\CCCCCCCC(=O)O [Linoleic acid]
- EC50 (PPARγ; [5]): ~20 µM

Molecule: O=C[C@@H](O)[C@@H](O)[C@H](O)[C@H](O)COP(=O)(O)O [mannose-6-phosphate, reference compound]
- Induction of myofibroblast differentiation in GFD medium ([2]; GFD plus 100 μM or 10 μM M-6-P, 13 days (FIG. 1)): inhibits the induction of myofibroblast differentiation
- Induction of myofibroblast differentiation in GFD medium ([3]; GFD plus 100 μM or 10 μM M-6-P, 13 days (FIG. 2)): inhibits the induction of myofibroblast differentiation

Molecule: IGF-I: insulin-like Growth Factor-I
- Number of myofibroblasts - percentage of total cell population ([4]; GF depleted medium + 1 ng/ml): 40.79 percentage of total cell popul
- Number of myofibroblasts - percentage of total cell population ([4]; GF depleted medium + 10 ng/ml): 43.90 percentage of total cell popul
- Number of myofibroblasts - percentage of total cell population ([4]; GF depleted medium + 50 ng/ml): 51.51 percentage of total cell popul
- Number of myofibroblasts - percentage of total cell population ([4]; GF depleted medium + 100 ng/ml): 47.00 percentage of total cell popul

Molecule: IGF-II: insulin-like Growth Factor II
- Number of myofibroblasts - percentage of total cell population ([4]; GF depleted medium + 50 ng/ml): 37.93 percentage of total cell popul
- Number of myofibroblasts - percentage of total cell population ([4]; GF depleted medium + 100 ng/ml): 40.26 percentage of total cell popul
- Number of myofibroblasts - percentage of total cell population ([4]; GF depleted medium + 200 ng/ml): 38.52 percentage of total cell popul

Molecule: PDGF
- Number of myofibroblasts - percentage of total cell population ([4]; GF depleted medium + 25 ng/ml): 50.95 percentage of total cell popul
- Number of myofibroblasts - percentage of total cell population ([4]; GF depleted medium + 50 ng/ml): 52.84 percentage of total cell popul
- Number of myofibroblasts - percentage of total cell population ([4]; GF depleted medium + 100 ng/ml): 53.35 percentage of total cell popul

Molecule: TGFβ1: transforming growth factor beta 1, inducer of myofibroblast differentiation
- Induction of myofibroblast differentiation [2, 6]: induces a rapid (within 5 days) induction of myofibroblast differentiation
- Induction of myofibroblast differentiation [3, 6]: induces a rapid (within 5 days) induction of myofibroblast differentiation

Molecule: bFGF: basic fibroblast growth factor
- Number of myofibroblasts - percentage of total cell population ([4]; GF depleted medium + 25 ng/ml): 31.82 percentage of total cell popul
- Number of myofibroblasts - percentage of total cell population ([4]; GF depleted medium + 100 ng/ml): 34.21 percentage of total cell popul
